According to US20100015262A1, “NOVEL USE OF COMPOUNDS AND COMBINATIONS OF COMPOUNDS FOR IMPROVING THE PHYSICAL APPEARANCE” (priority 2006, published 2010):
Read-outs that look alike come from different tables or passages of the source.

Test system: C3H10T1/2 cells
Experiment: Adipocyte differentiation: lipid accumulation in induced C3H10T1/2 pre-adipocytes (Bodipy stain, Cellomics ArrayScan)
Type: cell-based
Details: for Cellular lipids (in % of differentiated cells) / activity at 1 µM / activity at 5 µM / activity at 25 µM / activity at 0.5 µM / activity at 2 µM: 7 days; for activity at 1 µM / activity at 5 µM / activity at 25 µM / activity at 0.5 µM / activity at 2 µM: Mus musculus, C3H 10T1/2, 168 h, read-out: Cellular lipids (in % of differentiated cells); for Effect on amount of cytoplasmic lipids (in words): single substances, summary of Table 1
Experimental: In the present invention, the effect of agents was identified by using cellular assays that measure the effect on adipocyte differentiation. Adherent pre-adipocyte cells, C3H10T1/2, were used; they were cultured in complete DMEM/FCS, i.e. Dulbecco's modified essential medium (DMEM) supplemented with penicillin/streptomycin [50 U penicillin/ml, […] streptomycin/ml] and 10% fetal calf serum (FCS) and passaged every 3-5 days. For experiments, C3H10T1/2 cells were re-suspended in DMEM/FCS without phenol red and seeded at […] cells/per well in collagen I pre-coated 24-well plates. After 2-3 days cells reached confluence. Culture medium was changed and cell differentiation was induced by adding induction medium consisting of rosiglitazone and insulin (at 50 μmol/L and 200 nmol/L, respectively). In some cases the induction medium consisted of […] dexamethasone and 500 μmol/L 3-isobutyl-1-methylxanthine. Control cells were cultured in DMEM/FCS containing only insulin. Where appropriate, substances were added to the differentiation medium at various concentrations at the time of induction, except for carotenoids which were added at the beginning of culture in order to preload the cells. The induction medium was changed every 2-3-days. Seven days after induction, cells were fixed in 60% isopropanol (40% water). After two washes in phosphate buffered saline (PBS), cells were stained with the neutral lipid stain Bodipy® 493/505 (0.5 μg/ml) and the nuclear stain Hoechst 33342 dye (2 μg/ml) for 30 minutes in the dark. After washing with PBS, the stained cells were stored at 4° C. in PBS. The extent of differentiation was quantified in a Cellomics array™ Array Scan V^Ti (http://www.cellomics.com/) using the Spot Detector BioApplication that had been optimized for detecting lipid accumulation in differentiated adipocytes. Effects of treatments were quantified using the ‘SpotCount’ and ‘SpotCountPerObject’ parameter that adequately reflects the differentiation status of the adipocytes.
The tested compounds were purchased from Sigma (PUFAs, i.e. DHA docosahexaenoic acid; EPA eicosapentaenoic acid) or Cayman Chemicals hydroxytyrosol), from DSM (hydroxytyrosol, resveratrol, genistein) or from Ehrenstorfer GmbH, Augsburg Germany (carotenoids like β-carotene, β-cryptoxanthin, lutein, lycopene, zeaxanithin); rose hip concentrate/powder was purchased from HybenVital (Denmark). The compounds to be tested were dissolved in dimethylsulfoxide (DMSO) or—in the case of carotenoids—in tetrahydrofuran (THF). Cells were preloaded with carotenoids, i.e. these were added to the culture medium when cells were seeded into test plates. Carotenoids were freshly prepared for every experimental series. Vehicle solution was added to reach a final concentration of 0.5% (v/v).
We further tested the effect of substances that were added to cultures concomitantly. The obtained values were then compared to the sum of the effect of individual substances: positive values indicate that two substances interact synergistically and thus surpass the individual effects.

[1] = 0.5 μM carotenoid (cells preloaded) + inducers
[2] = 1.0 μM carotenoid (cells preloaded) + inducers
[3] = 2.0 μM carotenoid (cells preloaded) + inducers
[4] = 1 μM compound + inducers of differentiation
[5] = 5 μM compound + inducers of differentiation
[6] = 25 μM compound + inducers of differentiation

## CC1=C(/C=C/C(C)=C/C=C/C(C)=C/C=C/C=C(C)/C=C/C=C(C)/C=C/C2=C(C)C[C@@H](O)CC2(C)C)C(C)(C)CCC1 [β-cryptoxanthin]
[1]
  Cellular lipids (in % of differentiated cells): 47.5%
[2]
  Cellular lipids (in % of differentiated cells): 34.9%
[3]
  Cellular lipids (in % of differentiated cells): 16.2%

## CC/C=C\C/C=C\C/C=C\C/C=C\C/C=C\CCCC(=O)O [EPA, eicosapentaenoic acid]
[4]
  activity at 1 µM: 86.6%
[5]
  activity at 5 µM: 77%
[6]
  activity at 25 µM: 74.1%

## OCCc1ccc(O)c(O)c1 [Hydroxytyrosol]
[4]
  activity at 1 µM: 103%
[5]
  activity at 5 µM: 103%
[6]
  activity at 25 µM: 68.3%

## O=c1c(-c2ccc(O)cc2)coc2cc(O)cc(O)c12 [Genistein, genistein]
[4]
  activity at 1 µM: 112%
[5]
  activity at 5 µM: 99.7%
[6]
  activity at 25 µM: 95.9%
  Effect on amount of cytoplasmic lipids (in words): only minor effects

## CC/C=C\C/C=C\C/C=C\C/C=C\C/C=C\C/C=C\CCC(=O)O [DHA, docosahexaenoic acid]
[4]
  activity at 1 µM: 95.9%
[5]
  activity at 5 µM: 91.5%
[6]
  activity at 25 µM: 66.2%

## Oc1ccc(C=Cc2cc(O)cc(O)c2)cc1 [Resveratrol, resveratrol]
[4]
  activity at 1 µM: 106%
[5]
  activity at 5 µM: 102%
[6]
  activity at 25 µM: 103%
  Effect on amount of cytoplasmic lipids (in words): only minor effects

## CC1=C(/C=C/C(C)=C/C=C/C(C)=C/C=C/C=C(C)/C=C/C=C(C)/C=C/C2=C(C)C[C@@H](O)CC2(C)C)C(C)(C)C[C@H](O)C1 [zeaxanthin]
[1]
  Cellular lipids (in % of differentiated cells): 56.8%
[2]
  Cellular lipids (in % of differentiated cells): 39.5%
[3]
  Cellular lipids (in % of differentiated cells): 43.7%

## CC1=C(/C=C/C(C)=C/C=C/C(C)=C/C=C/C=C(C)/C=C/C=C(C)/C=C/C2=C(C)CCCC2(C)C)C(C)(C)CCC1 [beta-carotene, β-carotene]
[1]
  activity at 0.5 µM: 93%
[2]
  activity at 1 µM: 66.7%
[3]
  activity at 2 µM: 69.4%

## CC(C)=CCC/C(C)=C/C=C/C(C)=C/C=C/C(C)=C/C=C/C=C(C)/C=C/C=C(C)/C=C/C=C(\C)CCC=C(C)C [lycopene]
[1]
  activity at 0.5 µM: 44.5%
[2]
  activity at 1 µM: 45.1%
[3]
  activity at 2 µM: 24.6%

## (−)-epigallocatechin gallate [EGCG]
[4]
  Cellular lipids (in % of differentiated cells): 113.1%
[5]
  Cellular lipids (in % of differentiated cells): 98.9%
[6]
  Cellular lipids (in % of differentiated cells): 93.1%
  Effect on amount of cytoplasmic lipids (in words): only minor effects

## CC1=C[C@H](O)CC(C)(C)[C@H]1/C=C/C(C)=C/C=C/C(C)=C/C=C/C=C(C)/C=C/C=C(C)/C=C/C1=C(C)C[C@@H](O)CC1(C)C [lutein]
[1]
  activity at 0.5 µM: 94.3%
[2]
  activity at 1 µM: 85.6%
[3]
  activity at 2 µM: 72.1%
